Experimental findings from ChEMBL document CHEMBL1131677, “Synthesis and biological evaluation of substituted 4-(OBz)phenylalanine derivatives as novel N-type calcium channel blockers” (Bioorg Med Chem Lett, 1999) are described below.

For the test, the target named is Voltage-dependent N-type calcium channel subunit alpha-1B (Homo sapiens, UniProt Q00975). The experiment in a line: In vitro N-type [Ca2+] channel blocking potency in IMR-32 human neuroblastoma cells. It counts as functional, cell-based.
Chain of Voltage-dependent N-type calcium channel subunit alpha-1B (Q00975 whole entry): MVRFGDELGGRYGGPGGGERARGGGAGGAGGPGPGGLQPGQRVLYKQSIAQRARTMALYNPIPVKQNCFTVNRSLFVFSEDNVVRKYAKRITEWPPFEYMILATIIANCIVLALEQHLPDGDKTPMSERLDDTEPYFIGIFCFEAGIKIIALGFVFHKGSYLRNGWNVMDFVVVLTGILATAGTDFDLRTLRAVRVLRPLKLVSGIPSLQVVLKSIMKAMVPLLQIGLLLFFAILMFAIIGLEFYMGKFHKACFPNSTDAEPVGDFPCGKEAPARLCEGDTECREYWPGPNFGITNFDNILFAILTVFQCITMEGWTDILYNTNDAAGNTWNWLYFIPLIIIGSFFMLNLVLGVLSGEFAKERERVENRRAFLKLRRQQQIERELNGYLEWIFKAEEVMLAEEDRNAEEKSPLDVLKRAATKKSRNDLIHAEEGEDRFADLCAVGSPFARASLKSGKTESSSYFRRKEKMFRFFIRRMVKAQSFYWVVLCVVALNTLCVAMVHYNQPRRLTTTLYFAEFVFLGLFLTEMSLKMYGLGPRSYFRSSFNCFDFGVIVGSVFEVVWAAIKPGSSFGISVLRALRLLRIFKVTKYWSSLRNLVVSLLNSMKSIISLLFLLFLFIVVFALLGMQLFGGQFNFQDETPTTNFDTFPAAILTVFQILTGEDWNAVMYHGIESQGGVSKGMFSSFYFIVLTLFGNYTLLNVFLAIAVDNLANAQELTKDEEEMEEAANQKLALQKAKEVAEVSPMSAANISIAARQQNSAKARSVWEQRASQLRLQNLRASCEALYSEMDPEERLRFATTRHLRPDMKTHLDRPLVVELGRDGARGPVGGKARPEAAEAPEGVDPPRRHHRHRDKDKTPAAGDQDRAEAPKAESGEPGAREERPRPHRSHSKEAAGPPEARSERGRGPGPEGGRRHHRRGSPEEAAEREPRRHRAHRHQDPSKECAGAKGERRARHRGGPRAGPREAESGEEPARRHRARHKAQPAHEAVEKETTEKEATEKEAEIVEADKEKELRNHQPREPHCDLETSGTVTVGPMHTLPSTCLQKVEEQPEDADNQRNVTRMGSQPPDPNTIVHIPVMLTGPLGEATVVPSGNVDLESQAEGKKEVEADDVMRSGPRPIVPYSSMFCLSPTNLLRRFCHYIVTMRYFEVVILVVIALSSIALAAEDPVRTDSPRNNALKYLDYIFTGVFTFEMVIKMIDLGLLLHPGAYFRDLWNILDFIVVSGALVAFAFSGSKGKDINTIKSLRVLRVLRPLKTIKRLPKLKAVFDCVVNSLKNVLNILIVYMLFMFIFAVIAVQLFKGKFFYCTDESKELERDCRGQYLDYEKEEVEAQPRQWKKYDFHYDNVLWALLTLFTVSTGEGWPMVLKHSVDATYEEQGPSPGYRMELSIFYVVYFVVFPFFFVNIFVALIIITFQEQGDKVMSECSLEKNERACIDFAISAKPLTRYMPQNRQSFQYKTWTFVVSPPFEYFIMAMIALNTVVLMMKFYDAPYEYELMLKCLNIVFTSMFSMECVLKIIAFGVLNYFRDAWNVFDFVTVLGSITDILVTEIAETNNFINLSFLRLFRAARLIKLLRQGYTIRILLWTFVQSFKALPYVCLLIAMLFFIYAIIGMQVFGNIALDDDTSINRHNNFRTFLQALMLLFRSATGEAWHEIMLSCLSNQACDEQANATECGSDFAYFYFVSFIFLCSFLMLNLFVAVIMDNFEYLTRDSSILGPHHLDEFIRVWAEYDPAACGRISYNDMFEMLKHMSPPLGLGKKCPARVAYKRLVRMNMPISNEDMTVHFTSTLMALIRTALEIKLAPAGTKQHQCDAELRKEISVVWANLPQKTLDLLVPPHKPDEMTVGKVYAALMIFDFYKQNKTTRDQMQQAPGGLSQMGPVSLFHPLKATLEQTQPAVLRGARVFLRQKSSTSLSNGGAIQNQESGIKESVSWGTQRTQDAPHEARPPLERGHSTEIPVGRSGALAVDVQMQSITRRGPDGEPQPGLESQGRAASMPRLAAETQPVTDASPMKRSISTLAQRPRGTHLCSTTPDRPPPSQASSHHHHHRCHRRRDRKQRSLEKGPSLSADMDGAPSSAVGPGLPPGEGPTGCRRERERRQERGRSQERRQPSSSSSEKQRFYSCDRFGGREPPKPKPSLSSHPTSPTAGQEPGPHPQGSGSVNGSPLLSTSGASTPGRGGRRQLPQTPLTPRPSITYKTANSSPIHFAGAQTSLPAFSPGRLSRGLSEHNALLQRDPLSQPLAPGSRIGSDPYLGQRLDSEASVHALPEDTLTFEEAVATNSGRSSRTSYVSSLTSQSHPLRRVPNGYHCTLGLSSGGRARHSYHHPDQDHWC
One may read the IC50 as the concentration that gives 50% inhibition. Consider `CC(C)CCN1CCC(C(C)C)CC1C(=O)N[C@@H](Cc1ccc(OC(=O)c2ccccc2)cc1)C(=O)OC(C)(C)C` (some centres not stated), for which the IC50 came to 0.49 µM.

As for `CC(C)CCN[C@@H](CC(C)C)C(=O)N[C@@H](Cc1ccc(OC(=O)c2ccccc2)cc1)C(=O)OC(C)(C)C`, the concentration for half-maximal inhibition (IC50) turned out to be 0.4 µM.

On to `CC(C)CCN1CCN(C)CC1C(=O)N[C@@H](Cc1ccc(OC(=O)c2ccccc2)cc1)C(=O)OC(C)(C)C` (some centres not stated), for which the IC50 stood at 1 µM.

Turning to `CC(C)CCN1C(C)CCCC1C(=O)N[C@@H](Cc1ccc(OC(=O)c2ccccc2)cc1)C(=O)OC(C)(C)C` (some centres not stated), the IC50 came to 0.32 µM.

Consider `CC(C)CCN1CCC(C(=O)N[C@@H](Cc2ccc(OC(=O)c3ccccc3)cc2)C(=O)OC(C)(C)C)CC1`, for which the half-inhibitory concentration (IC50) is 1.5 µM.

In the case of `CC(C)CCN(C)[C@H](CC(C)C)C(=O)N[C@@H](Cc1ccc(OC(=O)c2ccccc2)cc1)C(=O)NC(C)(C)C`, the half-maximal inhibitory concentration (IC50) was determined as 0.37 µM.

`CC(C)CCN1CCCCC1C(=O)N[C@@H](Cc1ccc(OC(=O)c2ccccc2)cc1)C(=O)OC(C)(C)C` (some centres not stated): the IC50 is 1 µM.

On to `CC(C)CCN[C@@H](CC(C)C)C(=O)N[C@@H](Cc1ccc(OC(=O)c2ccccc2)cc1)C(=O)NC(C)(C)C`, for which the IC50 amounted to 0.3 µM.

Consider `CC(C)CCN1CCC(C)CC1C(=O)N[C@@H](Cc1ccc(OC(=O)c2ccccc2)cc1)C(=O)OC(C)(C)C` (some centres not stated), for which the IC50 amounted to 0.78 µM.

`CC(C)CCN1CCCC(C)C1C(=O)N[C@@H](Cc1ccc(OC(=O)c2ccccc2)cc1)C(=O)OC(C)(C)C` (some centres not stated): the IC50 amounted to 1.1 µM.

For `CC(C)CCN(C)CC(=O)N[C@@H](Cc1ccc(OC(=O)c2ccccc2)cc1)C(=O)NC(C)(C)C`, the IC50 amounted to 1.6 µM.

In the case of `CC(C)CCN(C)[C@H](C(=O)N[C@@H](Cc1ccc(OC(=O)c2ccccc2)cc1)C(=O)NC(C)(C)C)C(C)C`, the IC50 turned out to be 0.83 µM.
